Assay results taken from the supplement of paper PMC11061612.

Legend:
Assay in all cases: Bliss excess, mean over the matrix (fraction); higher = more synergy
A204 (Rhabdomyosarcoma) = system: A204 (Rhabdomyosarcoma)
Procedure, shortened: (§1)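 Bliss excess equals the observed combination effect minus the expected value EA + EB − EA·EB, where EA and EB are the effects of each agent alone. Combination Emax is the second-highest inhibition within the matrix. Inhibition was scaled from CellTiter-Glo 2.0 luminescence, with 0 set by vehicle wells and 1 by blank wells, after 72 hours of two-drug dosing of cells plated in 1536-well plates.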

[1] = system: CAL-27 (Oral Cavity Carcinoma)
Procedure, shortened: as §1

[2] = system: CGTH-W-1 (Thyroid Gland Carcinoma)
Procedure, shortened: as §1

COLO-792 (Melanoma) = system: COLO-792 (Melanoma)
Procedure, shortened: as §1

EB2 (Burkitt's Lymphoma) = system: EB2 (Burkitt's Lymphoma)
Procedure, shortened: as §1

EW-7 (Ewing's Sarcoma) = system: EW-7 (Ewing's Sarcoma)
Procedure, shortened: as §1

[3] = system: HCC1428 (Breast Carcinoma)
Procedure, shortened: as §1

HCC70 (Breast Carcinoma) = system: HCC70 (Breast Carcinoma)
Procedure, shortened: as §1

[4] = system: JHH-2 (Hepatocellular Carcinoma)
Procedure, shortened: as §1

[5] = system: Jurkat (T-Lymphoblastic Leukemia)
Procedure, shortened: as §1

KP-N-YN (Neuroblastoma) = system: KP-N-YN (Neuroblastoma)
Procedure, shortened: as §1

[6] = system: KYSE-220 (Esophageal Squamous Cell Carcinoma)
Procedure, shortened: as §1

[7] = system: NCI-H1651 (Lung Adenocarcinoma)
Procedure, shortened: as §1

[8] = system: NCI-H1703 (Squamous Cell Lung Carcinoma)
Procedure, shortened: as §1

[9] = system: NCI-H2087 (Lung Adenocarcinoma)
Procedure, shortened: as §1

[10] = system: NCI-H2228 (Lung Adenocarcinoma)
Procedure, shortened: as §1

RH-41 (Rhabdomyosarcoma) = system: RH-41 (Rhabdomyosarcoma)
Procedure, shortened: as §1

[11] = system: SK-HEP-1 (Hepatocellular Carcinoma)
Procedure, shortened: as §1

[12] = system: UACC-812 (Breast Carcinoma)
Procedure, shortened: as §1

[13] = system: huH-1 (Hepatocellular Carcinoma)
Procedure, shortened: as §1

`COc1cccc(OCCCN)c1-c1cc(Nc2cnc(C#N)cn2)n[nH]1` [Prexasertib] + CCc1c2c(nc3ccc(O)cc13)-c1cc3c(c(=O)n1C2)COC(=O)[C@]3(O)CC [SN-38] (first compound max 1 µM, 7x7, partner max 0.3 µM) was tested, and the Bliss excess (A204 (Rhabdomyosarcoma)) was -0.0375, the Bliss excess [1] was 0.0083 and the Bliss excess [2] was -0.0566. It also gave a Bliss excess (COLO-792 (Melanoma)) of 0.087, a Bliss excess (EB2 (Burkitt's Lymphoma)) of -0.0439 and a Bliss excess (EW-7 (Ewing's Sarcoma)) of -0.0713. The Bliss excess [3] was 0.045, the Bliss excess (HCC70 (Breast Carcinoma)) was -0.0259 and the Bliss excess [4] was 0.0002. The Bliss excess [5] was -0.005, the Bliss excess (KP-N-YN (Neuroblastoma)) was -0.0158 and the Bliss excess [6] was -0.0153. The Bliss excess [7] was -0.0551, the Bliss excess [8] was -0.0374 and the Bliss excess [9] was -0.0495. The Bliss excess [10] was -0.0569, the Bliss excess (RH-41 (Rhabdomyosarcoma)) was 0.0029 and the Bliss excess [11] was -0.0339. For the same molecule, the Bliss excess [12] was -0.0633 and the Bliss excess [13] was 0.022.

`CC1(C)CCC(CN2CCN(c3ccc(C(=O)NS(=O)(=O)c4ccc(NCC5CCOCC5)c([N+](=O)[O-])c4)c(Oc4cnc5[nH]ccc5c4)c3)CC2)=C(c2ccc(Cl)cc2)C1` [Venetoclax] + C[C@@H](Nc1cc(F)cc(F)c1)c1cc(C(=O)N(C)C)cc2c(=O)cc(N3CCOCC3)oc12 [AZD8186] (first compound max 1 µM, 7x7, partner max 3 µM) gave a Bliss excess (A204 (Rhabdomyosarcoma)) of -0.0152, a Bliss excess [1] of -0.0361 and a Bliss excess [2] of -0.0244. It also gave a Bliss excess (COLO-792 (Melanoma)) of 0.0036, a Bliss excess (EB2 (Burkitt's Lymphoma)) of 0.0231 and a Bliss excess (EW-7 (Ewing's Sarcoma)) of 0.0048. The Bliss excess [3] was -0.0147, the Bliss excess (HCC70 (Breast Carcinoma)) was 0.0376 and the Bliss excess [4] was 0.0003. The Bliss excess [5] was 0.0084, the Bliss excess (KP-N-YN (Neuroblastoma)) was 0.104 and the Bliss excess [6] was -0.0332. The Bliss excess [7] was -0.0212, the Bliss excess [8] was 0.0037 and the Bliss excess [9] was -0.0442. It also gave a Bliss excess [10] of 0.0129, a Bliss excess (RH-41 (Rhabdomyosarcoma)) of 0.0587 and a Bliss excess [11] of -0.0299. The Bliss excess [12] was -0.0319 and the Bliss excess [13] was -0.0265.

`Cc1c2c(nn1C)CSCc1cc(n(C)n1)CSc1cc(c3ccccc3c1)OCCCc1c(C(=O)O)n(C)c3c-2c(Cl)ccc13` [AZD5991] + Cn1cnc2c(F)c(Nc3ccc(Br)cc3Cl)c(C(=O)NOCCO)cc21 [Selumetinib] (first compound max 1 µM, 7x7, partner max 3 µM) gave a Bliss excess (A204 (Rhabdomyosarcoma)) of -0.0355, a Bliss excess [1] of 0.0086 and a Bliss excess [2] of -0.0152. For the same molecule, the Bliss excess (COLO-792 (Melanoma)) was 0.0234, the Bliss excess (EB2 (Burkitt's Lymphoma)) was -0.0046 and the Bliss excess (EW-7 (Ewing's Sarcoma)) was 0.0096. For the same molecule, the Bliss excess [3] was -0.0185, the Bliss excess (HCC70 (Breast Carcinoma)) was 0.099 and the Bliss excess [4] was -0.0154. It also gave a Bliss excess [5] of 0.0294, a Bliss excess (KP-N-YN (Neuroblastoma)) of -0.0059 and a Bliss excess [6] of 0.0119. The Bliss excess [7] was -0.0165, the Bliss excess [8] was -0.0087 and the Bliss excess [9] was 0.0282. For the same molecule, the Bliss excess [10] was 0.0038, the Bliss excess (RH-41 (Rhabdomyosarcoma)) was -0.0293 and the Bliss excess [11] was -0.0484. The Bliss excess [12] was 0.0137 and the Bliss excess [13] was -0.0382.

`COc1nnc2ccc(N3CCC(c4ccc(OCCN5CCN(C)C(=O)[C@H]5C)cc4)CC3)nn12` [AZD5153] + Cc1c2c(nn1C)CSCc1cc(n(C)n1)CSc1cc(c3ccccc3c1)OCCCc1c(C(=O)O)n(C)c3c-2c(Cl)ccc13 [AZD5991] (first compound max 1 µM, 7x7, partner max 1 µM) gave a Bliss excess (A204 (Rhabdomyosarcoma)) of -0.0116, a Bliss excess [1] of -0.056 and a Bliss excess [2] of -0.025. For the same molecule, the Bliss excess (COLO-792 (Melanoma)) was 0.0196, the Bliss excess (EB2 (Burkitt's Lymphoma)) was -0.0614 and the Bliss excess (EW-7 (Ewing's Sarcoma)) was 0.07. For the same molecule, the Bliss excess [3] was -0.0587, the Bliss excess (HCC70 (Breast Carcinoma)) was 0.0638 and the Bliss excess [4] was -0.119. The Bliss excess [5] was 0.0006, the Bliss excess (KP-N-YN (Neuroblastoma)) was -0.0362 and the Bliss excess [6] was -0.0229. It also gave a Bliss excess [7] of -0.0273, a Bliss excess [8] of -0.0186 and a Bliss excess [9] of -0.0328. For the same molecule, the Bliss excess [10] was -0.0261, the Bliss excess (RH-41 (Rhabdomyosarcoma)) was 0.012 and the Bliss excess [11] was -0.085. It also gave a Bliss excess [12] of 0.0365 and a Bliss excess [13] of 0.0196.

`COc1cccc(OCCCN)c1-c1cc(Nc2cnc(C#N)cn2)n[nH]1` [Prexasertib] + Cc1cc2ncnn2cc1Nc1ncc2c(n1)n(C1CCOCC1)c(=O)n2C [AZD7648] (first compound max 1 µM, 7x7, partner max 10 µM) showed a Bliss excess (A204 (Rhabdomyosarcoma)) of -0.091, a Bliss excess [1] of 0.0291 and a Bliss excess [2] of -0.0455. For the same molecule, the Bliss excess (COLO-792 (Melanoma)) was 0.0103, the Bliss excess (EB2 (Burkitt's Lymphoma)) was -0.0306 and the Bliss excess (EW-7 (Ewing's Sarcoma)) was -0.0118. The Bliss excess [3] was -0.0714, the Bliss excess (HCC70 (Breast Carcinoma)) was -0.0053 and the Bliss excess [4] was -0.0348. For the same molecule, the Bliss excess [5] was -0.0008, the Bliss excess (KP-N-YN (Neuroblastoma)) was -0.0221 and the Bliss excess [6] was -0.0308. For the same molecule, the Bliss excess [7] was -0.132, the Bliss excess [8] was -0.0192 and the Bliss excess [9] was 0.008. It also gave a Bliss excess [10] of -0.0487, a Bliss excess (RH-41 (Rhabdomyosarcoma)) of -0.0453 and a Bliss excess [11] of -0.0416. The Bliss excess [12] was -0.0402 and the Bliss excess [13] was -0.0226.

With `CCN(CCO)CCCOc1ccc2c(Nc3cc(CC(=O)Nc4cccc(F)c4)[nH]n3)ncnc2c1` [AZD2811] + C[C@@H]1COCCN1C2=NC(=NC(=C2)C3(CC3)[S@](=N)(=O)C)C4=C5C=CNC5=NC=C4 [AZD6738] (first compound max 1 µM, 7x7, partner max 10 µM) the Bliss excess (A204 (Rhabdomyosarcoma)) was -0.0492, the Bliss excess [1] was -0.0452 and the Bliss excess [2] was -0.0461. The Bliss excess (COLO-792 (Melanoma)) was 0.0336, the Bliss excess (EB2 (Burkitt's Lymphoma)) was 0.0038 and the Bliss excess (EW-7 (Ewing's Sarcoma)) was -0.0469. The Bliss excess [3] was -0.0369, the Bliss excess (HCC70 (Breast Carcinoma)) was -0.131 and the Bliss excess [4] was -0.0196. The Bliss excess [5] was 0.0336, the Bliss excess (KP-N-YN (Neuroblastoma)) was -0.0751 and the Bliss excess [6] was -0.0541. The Bliss excess [7] was -0.0555, the Bliss excess [8] was -0.0148 and the Bliss excess [9] was -0.0712. It also gave a Bliss excess [10] of -0.0184, a Bliss excess (RH-41 (Rhabdomyosarcoma)) of -0.0477 and a Bliss excess [11] of -0.0397. The Bliss excess [12] was -0.0303 and the Bliss excess [13] was -0.0294.

Molecule `COc1cccc(OCCCN)c1-c1cc(Nc2cnc(C#N)cn2)n[nH]1` [Prexasertib] + C[C@@H]1COCCN1C2=NC(=NC(=C2)C3(CC3)[S@](=N)(=O)C)C4=C5C=CNC5=NC=C4 [AZD6738] (first compound max 1 µM, 7x7, partner max 10 µM) has a Bliss excess (A204 (Rhabdomyosarcoma)) of -0.0542, a Bliss excess [1] of 0.0227 and a Bliss excess [2] of -0.0348. The Bliss excess (COLO-792 (Melanoma)) was -0.0376, the Bliss excess (EB2 (Burkitt's Lymphoma)) was -0.0478 and the Bliss excess (EW-7 (Ewing's Sarcoma)) was -0.0437. It also gave a Bliss excess [3] of -0.02, a Bliss excess (HCC70 (Breast Carcinoma)) of -0.0133 and a Bliss excess [4] of -0.0136. It also gave a Bliss excess [5] of -0.0076, a Bliss excess (KP-N-YN (Neuroblastoma)) of -0.0048 and a Bliss excess [6] of -0.0294. It also gave a Bliss excess [7] of -0.0439, a Bliss excess [8] of 0.0047 and a Bliss excess [9] of 0.0072. For the same molecule, the Bliss excess [10] was -0.0434, the Bliss excess (RH-41 (Rhabdomyosarcoma)) was -0.0423 and the Bliss excess [11] was 0.0447. The Bliss excess [12] was 0.049 and the Bliss excess [13] was -0.0716.

`CN(C)CCCOc1ccc(-c2ccc3ncc4c(c3c2)n(C2CCOCC2)c(=O)n4C)cn1` [AZD0156] + C=CCn1c(=O)c2cnc(Nc3ccc(N4CCN(C)CC4)cc3)nc2n1-c1cccc(C(C)(C)O)n1 [AZD1775] (first compound max 1 µM, partner max 1 µM) showed a Bliss excess (A204 (Rhabdomyosarcoma)) of -0.0545, a Bliss excess [1] of -0.0539 and a Bliss excess [2] of -0.033. It also gave a Bliss excess (COLO-792 (Melanoma)) of -0.017, a Bliss excess (EB2 (Burkitt's Lymphoma)) of -0.0322 and a Bliss excess (EW-7 (Ewing's Sarcoma)) of 0.039. It also gave a Bliss excess [3] of -0.115, a Bliss excess (HCC70 (Breast Carcinoma)) of -0.0682 and a Bliss excess [4] of -0.0233. The Bliss excess [5] was 0.0794, the Bliss excess (KP-N-YN (Neuroblastoma)) was -0.0161 and the Bliss excess [6] was -0.0432. It also gave a Bliss excess [7] of -0.0046, a Bliss excess [8] of -0.051 and a Bliss excess [9] of -0.071. It also gave a Bliss excess [10] of -0.0934, a Bliss excess (RH-41 (Rhabdomyosarcoma)) of -0.0175 and a Bliss excess [11] of -0.0574. The Bliss excess [12] was -0.0561 and the Bliss excess [13] was 0.0041.
